In brackets after ≈: the same amount, converted by molar mass. Several values for one entry are separate records, joined by “and”; a condition that tells them apart may be missing. Equal values may be shown once. One block for each molecule: values may come before it.
What was measured:
Assay in all cases: ≥ marks a high value that may be exact or a test limit, other limits are often not marked, values filed in µg/mL are converted to µM
Bacillus subtilis C971 = system: Bacillus subtilis C971
[1] = system: Corynebacterium xerosis C875
[2] = system: Enterococcus faecalis C625
Escherichia coli DC2 = system: Escherichia coli DC2
Escherichia coli UB1005 = system: Escherichia coli UB1005
[3] = system: Pseudomonas aeruginosa H187
[4] = system: Pseudomonas aeruginosa H188
[5] = system: Salmonella typhimurium C587
[6] = system: Salmonella typhimurium C610
[7] = system: Staphylococcus aureus ATCC 25923
[8] = system: Staphylococcus aureus SAP 0017
[9] = system: Staphylococcus epidermidis C621
[10] = system: Pseudomonas aeruginosa Ps4
Escherichia coli 078 = system: Escherichia coli 078
[11] = system: Escherichia coli ATCC 25922
[12] = system: Lacticaseibacillus rhamnosus 7469
[13] = system: Pseudomonas aeruginosa ATCC 27853
[14] = system: Salmonella enterica subsp. enterica serovar Pullorum ATCC 7913
[15] = system: Salmonella enterica subsp. enterica serovar Typhimurium ATCC 14028
[16] = system: Salmonella enterica subsp. enterica serovar Typhimurium C77-31
[17] = system: Staphylococcus aureus ATCC 29213
[18] = system: Staphylococcus epidermidis ATCC 12228
[19] = system: Streptococcus agalactiae CICC 10465
Streptococcus agalactiae = system: Streptococcus agalactiae
[20] = system: Streptococcus thermophilus YM-C
Escherichia coli = system: Escherichia coli
Listeria innocua = system: Listeria innocua
Micrococcus luteus A270 = system: Micrococcus luteus A270
[21] = system: Salmonella enterica subsp. enterica serovar Enteritidis

SMILES: CC[C@H](C)[C@H](NC(=O)[C@H](C)NC(=O)[C@H](CCCCN)NC(=O)[C@H](CC(C)C)NC(=O)[C@H](C)NC(=O)[C@@H](NC(=O)[C@H](Cc1cnc[nH]1)NC(=O)[C@H](CC(C)C)NC(=O)[C@@H](NC(=O)[C@@H](NC(=O)[C@H](CCCCN)NC(=O)[C@@H](NC(=O)[C@H](C)NC(=O)[C@H](CCCCN)NC(=O)[C@H](CCCCN)NC(=O)[C@H](Cc1ccccc1)NC(=O)[C@@H](NC(=O)[C@H](CCCCN)NC(=O)[C@H](CC(C)C)NC(=O)[C@H](Cc1ccccc1)NC(=O)[C@H](CO)NC(=O)[C@H](CCCCN)NC(=O)[C@H](Cc1c[nH]c2ccccc12)NC(=O)[C@H](CCCCN)NC(C)=O)[C@@H](C)O)C(C)C)[C@@H](C)O)C(C)C)[C@@H](C)O)C(=O)N[C@@H](CO)C(=O)N[C@@H](CO)C(N)=O [KWKSFLKTFKKAVKTVLHTALKAISS]
MIC (Bacillus subtilis C971): 1.08 µM (≈ 3.24 µg/mL)
MIC [1]: 1.35 µM (≈ 4.06 µg/mL)
MIC [2]: 10.8 µM (≈ 32.4 µg/mL)
MIC (Escherichia coli DC2): 1.35 µM (≈ 4.06 µg/mL)
MIC (Escherichia coli UB1005): 3.41 µM (≈ 10.2 µg/mL)
MIC [3]: 8.58 µM (≈ 25.8 µg/mL)
MIC [4]: 10.8 µM (≈ 32.4 µg/mL)
MIC [5]: 8.58 µM (≈ 25.8 µg/mL)
MIC [6]: 2.7 µM (≈ 8.11 µg/mL)
MIC [7]: 10.8 µM (≈ 32.4 µg/mL)
MIC [8]: 5.4 µM (≈ 16.2 µg/mL)
MIC [9]: 2.16 µM (≈ 6.49 µg/mL)

SMILES: CC[C@H](C)[C@H](NC(=O)[C@H](CC(N)=O)NC(=O)[C@H](CCCN=C(N)N)NC(=O)[C@H](Cc1c[nH]c2ccccc12)NC(=O)[C@@H](N)Cc1ccccc1)C(=O)N[C@@H](CCCN=C(N)N)C(=O)N[C@@H](CCCCN)C(=O)N[C@H](C(=O)N[C@@H](CCCN=C(N)N)C(N)=O)C(C)C [FWRNIRKVR]
MIC [10]: ≥ 196 µM

SMILES: CC[C@H](C)[C@H](NC(=O)[C@H](C)NC(=O)[C@H](CCCCN)NC(=O)[C@H](CC(C)C)NC(=O)[C@H](C)NC(=O)[C@@H](NC(=O)[C@H](Cc1cnc[nH]1)NC(=O)[C@H](CC(C)C)NC(=O)[C@@H](NC(=O)[C@@H](NC(=O)[C@H](CCCCN)NC(=O)[C@H](CC(C)C)NC(=O)[C@H](C)NC(=O)[C@H](CO)NC(=O)[C@H](CCCCN)NC(=O)[C@H](Cc1ccccc1)NC(=O)[C@@H](NC(=O)[C@H](CCCCN)NC(=O)[C@H](CC(C)C)NC(=O)[C@H](Cc1ccccc1)NC(=O)[C@H](CO)NC(=O)[C@H](CCCCN)NC(=O)[C@H](Cc1c[nH]c2ccccc12)NC(=O)[C@H](CCCCN)NC(C)=O)[C@@H](C)O)[C@@H](C)O)C(C)C)[C@@H](C)O)C(=O)N[C@@H](CO)C(=O)N[C@@H](CO)C(N)=O [KWKSFLKTFKSALKTVLHTALKAISS]
MIC (Bacillus subtilis C971): 1.09 µM (≈ 3.24 µg/mL)
MIC [1]: 0.852 µM (≈ 2.53 µg/mL)
MIC [2]: 10.9 µM (≈ 32.4 µg/mL)
MIC [11]: 4 µM (≈ 11.9 µg/mL)
MIC (Escherichia coli DC2): 1.7 µM (≈ 5.07 µg/mL)
MIC (Escherichia coli UB1005): 2.18 µM (≈ 6.49 µg/mL)
MIC [13]: 8 µM (≈ 23.8 µg/mL)
MIC [3]: 4.33 µM (≈ 12.9 µg/mL)
MIC [4]: 10.9 µM (≈ 32.4 µg/mL)
MIC [5]: 10.9 µM (≈ 32.4 µg/mL)
MIC [6]: 3.44 µM (≈ 10.2 µg/mL)
MIC [7]: 10.9 µM and 8 µM
MIC [8]: 8.66 µM (≈ 25.8 µg/mL)
MIC [18]: 2 µM (≈ 5.95 µg/mL)
MIC [9]: 2.73 µM (≈ 8.11 µg/mL)

SMILES: C[C@@H](O)[C@H](NC(=O)[C@H](CCCCN)NC(=O)[C@@H](NC(=O)[C@@H](NC(=O)[C@@H]1CCCN1C(=O)[C@@H](N)Cc1ccccc1)[C@@H](C)O)[C@@H](C)O)C(=O)N[C@@H](Cc1ccc(O)cc1)C(=O)N[C@@H](Cc1ccccc1)C(=O)N1CCC[C@H]1C(=O)N[C@@H](Cc1cnc[nH]1)C(=O)O [FPTTKTYFPH]
MIC (Escherichia coli): 9 µM (≈ 11.1 µg/mL)
MIC (Listeria innocua): 1 µM (≈ 1.24 µg/mL)
MIC (Micrococcus luteus A270): 1 µM (≈ 1.24 µg/mL)
MIC [21]: 9 µM (≈ 11.1 µg/mL)

Continued, values first:

MIC (Escherichia coli 078): 8 µM (≈ 15.7 µg/mL)
MIC [11]: 4 µM (≈ 7.85 µg/mL)
MIC (Escherichia coli UB1005): 4 µM (≈ 7.85 µg/mL)
MIC [12]: ≥ 64 µM
MIC [13]: 4 µM (≈ 7.85 µg/mL)
MIC [14]: 8 µM (≈ 15.7 µg/mL)
MIC [15]: 8 µM (≈ 15.7 µg/mL)
MIC [16]: 8 µM (≈ 15.7 µg/mL)
MIC [7]: 4 µM (≈ 7.85 µg/mL)
MIC [17]: 4 µM (≈ 7.85 µg/mL)
MIC [18]: 8 µM (≈ 15.7 µg/mL)
MIC [19]: 2 µM (≈ 3.93 µg/mL)
MIC (Streptococcus agalactiae): 4 µM (≈ 7.85 µg/mL)
MIC [20]: ≥ 64 µM
SMILES: CC[C@H](C)[C@H](NC(=O)[C@H](CC(C)C)NC(=O)[C@@H](NC(=O)[C@@H](N)CC(=O)O)[C@@H](C)CC)C(=O)N[C@H](C(=O)N[C@H](C(=O)NCC(=O)NCC(=O)N[C@@H](CCCCN)C(=O)N[C@@H](CCCN=C(N)N)C(=O)N[C@@H](CCCN=C(N)N)C(=O)N[C@@H](CCCCN)C(=O)N[C@@H](CCCCN)C(=O)N[C@@H](CCCN=C(N)N)C(=O)N[C@@H](CCCN=C(N)N)C(=O)N[C@@H](CCCN=C(N)N)C(N)=O)C(C)C)[C@@H](C)CC [DILIIVGGKRRKKRRR]

MIC (Escherichia coli 078): ≥ 64 µM
MIC [11]: > 64 µM
MIC (Escherichia coli UB1005): ≥ 64 µM
MIC [12]: ≥ 64 µM
MIC [13]: > 64 µM
MIC [14]: ≥ 64 µM
MIC [15]: > 64 µM
MIC [16]: ≥ 64 µM
MIC [7]: > 64 µM
MIC [17]: > 64 µM
MIC [18]: > 64 µM
MIC [19]: ≥ 64 µM
MIC (Streptococcus agalactiae): ≥ 64 µM
MIC [20]: ≥ 64 µM
SMILES: CC[C@H](C)[C@H](NC(=O)[C@H](CC(C)C)NC(=O)[C@@H](NC(=O)[C@@H](N)CC(=O)O)[C@@H](C)CC)C(=O)N[C@H](C(=O)N[C@H](C(=O)NCC(=O)NCC(=O)N[C@@H](CCCN=C(N)N)C(=O)N[C@@H](CCCN=C(N)N)C(N)=O)C(C)C)[C@@H](C)CC [DILIIVGGRR]

MIC [10]: ≥ 173 µM
SMILES: CC(C)C[C@H](NC(=O)[C@H](CCCN=C(N)N)NC(=O)[C@H](CC(C)C)NC(=O)[C@H](CC(N)=O)NC(=O)[C@H](CCCN=C(N)N)NC(=O)[C@H](CCC(N)=O)NC(=O)[C@H](Cc1c[nH]c2ccccc12)NC(=O)[C@@H](N)Cc1ccccc1)C(=O)N[C@@H](CCCN=C(N)N)C(=O)N[C@@H](CCCN=C(N)N)C(N)=O [FWQRNLRLRR]

MIC (Escherichia coli): 54 µM (≈ 143 µg/mL)
MIC (Listeria innocua): 27 µM (≈ 71.7 µg/mL)
MIC (Micrococcus luteus A270): ≥ 38 µM
MIC [21]: ≥ 38 µM
SMILES: CC(C)C[C@H](NC(=O)[C@@H](N)C(C)C)C(=O)N[C@@H](CO)C(=O)N[C@@H](C)C(=O)N[C@@H](C)C(=O)N[C@@H](CC(=O)O)C(=O)N[C@@H](CCCCN)C(=O)NCC(=O)N[C@@H](CC(N)=O)C(=O)N[C@H](C(=O)N[C@@H](CCCCN)C(=O)N[C@@H](C)C(=O)N[C@@H](C)C(=O)N[C@@H](Cc1c[nH]c2ccccc12)C(=O)NCC(=O)N[C@@H](CCCCN)C(=O)N[C@H](C(=O)NCC(=O)NCC(=O)N[C@@H](Cc1cnc[nH]1)C(=O)N[C@@H](C)C(=O)N[C@@H](C)C(=O)N[C@@H](CCC(=O)O)C(=O)N[C@@H](Cc1ccc(O)cc1)C(=O)NCC(=O)N[C@@H](C)C(=O)N[C@@H](CCC(=O)O)C(=O)O)C(C)C)C(C)C [VLSAADKGNVKAAWGKVGGHAAEYGAE]
